In PubChem BioAssay (NCI):
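Tested at 5 concentrations; 48 h exposure; 96-well plates; endpoints linearly interpolated, else capped at highest concentration. TGI is the concentration that stops growth completely.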

Key:
Assay in all cases: NCI tumour cell line growth inhibition, 48 h
SF-539 CNS = tested on: SF-539 CNS
MALME-3M melanoma = tested on: MALME-3M melanoma
SF-295 CNS = tested on: SF-295 CNS
MDA-MB-435 = tested on: MDA-MB-435
RXF 393 renal = tested on: RXF 393 renal
HCT-15 colon = tested on: HCT-15 colon
CAKI-1 renal = tested on: CAKI-1 renal
NCI-H460 lung = tested on: NCI-H460 lung
UACC-62 melanoma = tested on: UACC-62 melanoma
SNB-75 CNS = tested on: SNB-75 CNS
OVCAR-3 ovarian = tested on: OVCAR-3 ovarian
COLO 205 colon = tested on: COLO 205 colon
SK-MEL-28 melanoma = tested on: SK-MEL-28 melanoma
NCI/ADR-RES ovarian = tested on: NCI/ADR-RES ovarian
KM12 colon = tested on: KM12 colon
SK-OV-3 ovarian = tested on: SK-OV-3 ovarian
786-0 renal = tested on: 786-0 renal
K-562 leukemia = tested on: K-562 leukemia
NCI-H522 lung = tested on: NCI-H522 lung
SW-620 colon = tested on: SW-620 colon
UO-31 renal = tested on: UO-31 renal
CCRF-CEM leukemia = tested on: CCRF-CEM leukemia
SF-268 CNS = tested on: SF-268 CNS
UACC-257 melanoma = tested on: UACC-257 melanoma
SK-MEL-5 melanoma = tested on: SK-MEL-5 melanoma
HCC-2998 colon = tested on: HCC-2998 colon
MCF7 breast = tested on: MCF7 breast
NCI-H23 lung = tested on: NCI-H23 lung
NCI-H226 lung = tested on: NCI-H226 lung
OVCAR-4 ovarian = tested on: OVCAR-4 ovarian
MDA-N = tested on: MDA-N
HOP-62 NSCLC = tested on: HOP-62 NSCLC
SNB-19 CNS = tested on: SNB-19 CNS
IGROV1 ovarian = tested on: IGROV1 ovarian
BT-549 breast = tested on: BT-549 breast
A498 renal = tested on: A498 renal
SK-MEL-2 melanoma = tested on: SK-MEL-2 melanoma
MOLT-4 leukemia = tested on: MOLT-4 leukemia
EKVX NSCLC = tested on: EKVX NSCLC
HS 578T breast = tested on: HS 578T breast
DU-145 prostate = tested on: DU-145 prostate
T-47D breast = tested on: T-47D breast
SR leukemia = tested on: SR leukemia
PC-3 prostate = tested on: PC-3 prostate
MDA-MB-231 breast = tested on: MDA-MB-231 breast
OVCAR-8 ovarian = tested on: OVCAR-8 ovarian
HOP-92 NSCLC = tested on: HOP-92 NSCLC
ACHN renal = tested on: ACHN renal
HT29 colon = tested on: HT29 colon
TK-10 renal = tested on: TK-10 renal
M14 melanoma = tested on: M14 melanoma
OVCAR-5 ovarian = tested on: OVCAR-5 ovarian
A549 NSCLC = tested on: A549 NSCLC
LOX IMVI melanoma = tested on: LOX IMVI melanoma
HL-60(TB) leukemia = tested on: HL-60(TB) leukemia
SN12C renal = tested on: SN12C renal
U251 CNS = tested on: U251 CNS
HCT-116 colon = tested on: HCT-116 colon
RPMI-8226 leukemia = tested on: RPMI-8226 leukemia

In the case of `C=CC[C@@]1(OC(C)=O)C(=O)C(=O)OC1C1COC(C)(C)O1` (stereo partly drawn), the TGI (SF-539 CNS) is reported as 72.9 µM, the TGI (MALME-3M melanoma) is reported as 32 µM and the TGI (SF-295 CNS) is reported as over 100 µM. For the same molecule, the TGI (MDA-MB-435) was 30.9 µM, the TGI (RXF 393 renal) was 40.1 µM and the TGI (HCT-15 colon) was 29 µM. The TGI (CAKI-1 renal) was 4.42 µM, the TGI (NCI-H460 lung) was 39.1 µM and the TGI (UACC-62 melanoma) was 32.5 µM. The TGI (SNB-75 CNS) was 78.7 µM, the TGI (OVCAR-3 ovarian) was 31.5 µM and the TGI (COLO 205 colon) was 27.2 µM. The TGI (SK-MEL-28 melanoma) was 33.5 µM, the TGI (NCI/ADR-RES ovarian) was 71.9 µM and the TGI (KM12 colon) was 29.1 µM. For the same molecule, the TGI (SK-OV-3 ovarian) was over 100 µM, the TGI (786-0 renal) was 24.6 µM and the TGI (K-562 leukemia) was 32.2 µM. For the same molecule, the TGI (NCI-H522 lung) was 19.6 µM, the TGI (SW-620 colon) was 26.6 µM and the TGI (UO-31 renal) was 31.4 µM. The TGI (CCRF-CEM leukemia) was 22.7 µM, the TGI (SF-268 CNS) was 39.4 µM and the TGI (UACC-257 melanoma) was 31.9 µM. For the same molecule, the TGI (SK-MEL-5 melanoma) was 30.4 µM, the TGI (HCC-2998 colon) was 40.7 µM and the TGI (MCF7 breast) was 33.6 µM. It also gave a TGI (NCI-H23 lung) of 40.5 µM, a TGI (NCI-H226 lung) of over 100 µM and a TGI (OVCAR-4 ovarian) of 38.7 µM. For the same molecule, the TGI (MDA-N) was 33.3 µM, the TGI (HOP-62 NSCLC) was over 100 µM and the TGI (SNB-19 CNS) was over 100 µM. It also gave a TGI (IGROV1 ovarian) of 34 µM, a TGI (BT-549 breast) of 40 µM and a TGI (A498 renal) of 49 µM. For the same molecule, the TGI (SK-MEL-2 melanoma) was 43.5 µM, the TGI (MOLT-4 leukemia) was 32.6 µM and the TGI (EKVX NSCLC) was 33 µM. The TGI (HS 578T breast) was over 100 µM, the TGI (DU-145 prostate) was 53.8 µM and the TGI (T-47D breast) was 37.5 µM. It also gave a TGI (SR leukemia) of 37.9 µM, a TGI (PC-3 prostate) of 40.2 µM and a TGI (MDA-MB-231 breast) of 30.9 µM. For the same molecule, the TGI (OVCAR-8 ovarian) was 41.2 µM, the TGI (HOP-92 NSCLC) was 30.4 µM and the TGI (ACHN renal) was 30.2 µM. The TGI (HT29 colon) was 36.4 µM, the TGI (TK-10 renal) was 30 µM and the TGI (M14 melanoma) was 35.1 µM. It also gave a TGI (OVCAR-5 ovarian) of 34.5 µM, a TGI (A549 NSCLC) of 58.1 µM and a TGI (LOX IMVI melanoma) of 20 µM. The TGI (HL-60(TB) leukemia) was 27.2 µM, the TGI (SN12C renal) was 32.5 µM and the TGI (U251 CNS) was 31.3 µM. For the same molecule, the TGI (HCT-116 colon) was 26.6 µM and the TGI (RPMI-8226 leukemia) was 35.5 µM.
`N#C/C(=C\Nc1ccccn1)C(=O)C1CC1` was tested, and the TGI (SF-539 CNS) was over 100 µM, the TGI (MALME-3M melanoma) was over 100 µM and the TGI (SF-295 CNS) was over 100 µM. It also gave a TGI (MDA-MB-435) of over 100 µM, a TGI (RXF 393 renal) of over 100 µM and a TGI (HCT-15 colon) of over 100 µM. For the same molecule, the TGI (CAKI-1 renal) was over 100 µM, the TGI (NCI-H460 lung) was over 100 µM and the TGI (UACC-62 melanoma) was over 100 µM. The TGI (SNB-75 CNS) was over 100 µM, the TGI (OVCAR-3 ovarian) was over 100 µM and the TGI (COLO 205 colon) was over 100 µM. For the same molecule, the TGI (SK-MEL-28 melanoma) was over 100 µM, the TGI (NCI/ADR-RES ovarian) was over 100 µM and the TGI (KM12 colon) was over 100 µM. It also gave a TGI (SK-OV-3 ovarian) of over 100 µM, a TGI (786-0 renal) of over 100 µM and a TGI (K-562 leukemia) of over 100 µM. For the same molecule, the TGI (NCI-H522 lung) was over 100 µM, the TGI (SW-620 colon) was over 100 µM and the TGI (UO-31 renal) was over 100 µM. It also gave a TGI (CCRF-CEM leukemia) of over 100 µM, a TGI (SF-268 CNS) of over 100 µM and a TGI (UACC-257 melanoma) of over 100 µM. For the same molecule, the TGI (SK-MEL-5 melanoma) was over 100 µM, the TGI (HCC-2998 colon) was over 100 µM and the TGI (MCF7 breast) was over 100 µM. It also gave a TGI (NCI-H23 lung) of over 100 µM, a TGI (NCI-H226 lung) of over 100 µM and a TGI (OVCAR-4 ovarian) of over 100 µM. It also gave a TGI (MDA-N) of over 100 µM, a TGI (HOP-62 NSCLC) of over 100 µM and a TGI (SNB-19 CNS) of over 100 µM. It also gave a TGI (IGROV1 ovarian) of over 100 µM, a TGI (BT-549 breast) of over 100 µM and a TGI (A498 renal) of over 100 µM. For the same molecule, the TGI (SK-MEL-2 melanoma) was over 100 µM, the TGI (MOLT-4 leukemia) was over 100 µM and the TGI (EKVX NSCLC) was over 100 µM. It also gave a TGI (HS 578T breast) of over 100 µM, a TGI (DU-145 prostate) of over 100 µM and a TGI (T-47D breast) of over 100 µM. For the same molecule, the TGI (SR leukemia) was over 100 µM, the TGI (PC-3 prostate) was over 100 µM and the TGI (MDA-MB-231 breast) was over 100 µM. The TGI (OVCAR-8 ovarian) was over 100 µM, the TGI (HOP-92 NSCLC) was over 100 µM and the TGI (ACHN renal) was over 100 µM. For the same molecule, the TGI (HT29 colon) was over 100 µM, the TGI (TK-10 renal) was over 100 µM and the TGI (M14 melanoma) was over 100 µM. It also gave a TGI (OVCAR-5 ovarian) of over 100 µM, a TGI (A549 NSCLC) of over 100 µM and a TGI (LOX IMVI melanoma) of over 100 µM. It also gave a TGI (HL-60(TB) leukemia) of over 100 µM, a TGI (SN12C renal) of over 100 µM and a TGI (U251 CNS) of over 100 µM. It also gave a TGI (HCT-116 colon) of over 100 µM and a TGI (RPMI-8226 leukemia) of over 100 µM.
